Values after ≈ are worked out from the molar mass of the structure shown. Where two headings read alike, the source gives them in different places.
Key:
PDE-6 bovine = target: T1, PDE-6 bovine (Bos taurus, UniProt P11541+P23439); test: PDE-6 bovine inhibition; type: biochemical
T1 sequence (P11541 2-856 limits assumed): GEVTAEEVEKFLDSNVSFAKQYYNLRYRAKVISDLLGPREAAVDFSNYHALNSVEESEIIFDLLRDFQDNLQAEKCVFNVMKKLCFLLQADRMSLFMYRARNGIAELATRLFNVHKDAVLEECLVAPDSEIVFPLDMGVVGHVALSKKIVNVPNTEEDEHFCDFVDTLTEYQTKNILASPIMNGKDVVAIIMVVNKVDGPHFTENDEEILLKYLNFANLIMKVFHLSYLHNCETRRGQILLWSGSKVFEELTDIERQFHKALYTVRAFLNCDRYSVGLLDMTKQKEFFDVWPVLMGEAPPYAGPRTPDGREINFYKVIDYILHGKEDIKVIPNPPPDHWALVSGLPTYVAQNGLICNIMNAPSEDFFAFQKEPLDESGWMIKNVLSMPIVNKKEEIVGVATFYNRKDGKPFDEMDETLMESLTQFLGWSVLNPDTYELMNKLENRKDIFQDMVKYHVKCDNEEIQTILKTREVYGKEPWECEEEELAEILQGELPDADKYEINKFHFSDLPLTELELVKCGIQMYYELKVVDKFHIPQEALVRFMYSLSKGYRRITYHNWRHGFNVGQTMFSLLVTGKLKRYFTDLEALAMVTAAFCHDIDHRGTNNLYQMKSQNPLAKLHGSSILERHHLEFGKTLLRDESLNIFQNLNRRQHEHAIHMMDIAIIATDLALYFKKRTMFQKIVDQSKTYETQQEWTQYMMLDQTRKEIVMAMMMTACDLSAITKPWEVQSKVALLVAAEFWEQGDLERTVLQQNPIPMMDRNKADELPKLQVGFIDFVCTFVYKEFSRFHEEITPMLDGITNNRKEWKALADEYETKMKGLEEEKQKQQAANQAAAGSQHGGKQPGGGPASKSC
T1 sequence (P23439 2-850 limits assumed): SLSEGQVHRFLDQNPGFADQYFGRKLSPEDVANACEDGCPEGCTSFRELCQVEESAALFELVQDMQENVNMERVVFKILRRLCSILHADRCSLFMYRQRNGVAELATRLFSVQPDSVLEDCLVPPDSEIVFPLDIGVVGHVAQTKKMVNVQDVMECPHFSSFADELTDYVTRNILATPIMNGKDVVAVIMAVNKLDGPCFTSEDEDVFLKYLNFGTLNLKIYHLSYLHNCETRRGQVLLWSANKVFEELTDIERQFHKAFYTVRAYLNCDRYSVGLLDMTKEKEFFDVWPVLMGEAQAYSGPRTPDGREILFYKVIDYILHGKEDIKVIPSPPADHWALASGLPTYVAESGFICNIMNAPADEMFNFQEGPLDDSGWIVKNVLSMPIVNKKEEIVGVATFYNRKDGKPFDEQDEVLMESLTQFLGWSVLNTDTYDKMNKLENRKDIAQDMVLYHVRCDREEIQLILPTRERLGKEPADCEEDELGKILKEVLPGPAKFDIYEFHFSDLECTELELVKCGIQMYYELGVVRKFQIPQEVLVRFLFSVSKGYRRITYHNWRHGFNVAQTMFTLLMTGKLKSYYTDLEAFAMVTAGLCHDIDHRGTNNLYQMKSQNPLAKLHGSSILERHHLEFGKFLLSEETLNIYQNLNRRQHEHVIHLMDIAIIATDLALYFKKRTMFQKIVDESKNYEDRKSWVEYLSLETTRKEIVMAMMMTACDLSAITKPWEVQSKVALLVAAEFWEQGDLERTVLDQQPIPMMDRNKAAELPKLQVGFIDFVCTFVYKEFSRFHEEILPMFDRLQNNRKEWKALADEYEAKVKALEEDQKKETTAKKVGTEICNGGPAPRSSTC

Caco-2 permeability = type: in vitro ADME; conditions: human; for Papp A→B: AtoB; for Papp B→A: BtoA
Source text: Several model systems are available, employing monolayers of various cell types, for evaluation of active transport of pharmaceutically active substances. For example, monolayers of Caco-2 intestinal epithelial cells can be used to evaluate active transport of substances between the intestine and the bloodstream. When plated on a surface which allows the flow of material from apical to basolateral and vice versa, such cells form a biological membrane which can be used to simulate physiological absorption and bioavailability. In another example, mouse brain capillary endothelial cell (MBEC) lines have been established to evaluate active transport in and out of the central nervous system. Another example of such cells is HT29 human colon carcinoma cells. Further, monolayers expressing particular transporter proteins can be established using transfected cells. For example, Sasaki et al (2002) J. Biol. Chem. 8:6497 used a double-transfected Madin-Darby canine kidney cell monolayer to study transport of organic anions.

[1] = Chronic Cytoxicity (mouse 3T3); type: cell-based; conditions: 3T3 cells
Solubility = type: physicochemical
PDE5 = PDE5 (Homo sapiens, UniProt O76074); test: PDE-5 human inhibition; type: biochemical
PDE-3 = PDE-3 inhibition; type: biochemical
PAMPA permeability = type: in vitro ADME
PDE-1 = PDE-1 inhibition; type: biochemical
Non-Spec Binding = type: in vitro ADME
Protein Binding = type: in vitro ADME; conditions: human, human serum components
Description: In general, protein binding is assessed by measuring the capacity of molecules of the invention to bind to one or more human serum components or mimics thereof. In one embodiment, suitable functional residues may be identified by screening of surfaces comprising such residues for their ability to resist adsorption of serum components, including, but not limited to serum proteins, and preferably human serum proteins. Candidate residues can be screened directly by attaching them to a solid support and testing the support for protein resistance. Alternatively, candidate residues are incorporated into, or linked to molecules of pharmaceutical interest. Such compounds may be synthesized on a solid support, or bound to a solid support after synthesis. In a non-limiting example of a direct binding assay, immobilized candidate functional residues or molecules incorporating such residues are tested for their ability to bind serum components. The serum components can be labeled with a signaling moiety for detection, or a labeled secondary reagent that binds to such serum components can be used.
A direct binding analysis can also be preformed in liquid phase. For example, test compounds can be mixed with one or more serum components in liquid phase, and the unbound molecules determined.

PDE-4 human = PDE-4 human inhibition; type: biochemical
[2] = pH 2.7, aqueous buffer, read-out: Solubility (ug/mL) pH 2.7
[3] = pH 7.4, aqueous buffer, read-out: Solubility (ug/mL) pH 7.4

IC50 (PDE-6 bovine) [nM]	Papp A→B (Caco-2 permeability) [×10⁻⁶ cm/s]	Papp B→A (Caco-2 permeability) [×10⁻⁶ cm/s]	solubility (Solubility; [2]) [µg/mL]	solubility (Solubility; [3]) [µg/mL]	IC50 (PDE5) [nM]	IC50 (PDE-3) [nM]	Papp (PAMPA permeability; Hex, read-out: PAMPA Hex) [×10⁻⁶ cm/s]	Papp (PAMPA permeability; Lec, read-out: PAMPA Lec) [×10⁻⁶ cm/s]	IC50 (PDE-1) [nM]	Non-Spec Binding (%) (Non-Spec Binding)	fraction unbound (Protein Binding)	IC50 (PDE-4 human) [nM]	Compound	GI50 [1] [nM]	LC50 (50% lethal concentration) [1] [nM]
0.48	2.2	5.5	–	–	0.1	1300	–	–	24	0.8	0.025	5000	CCCc1nc(C)c2c(=O)[nH]c(-c3cc(S(=O)(=O)N(C)CC(=O)O)ccc3OCC)nn12 [Compound 12]	–	–
2.9	20.6	48.8	–	–	0.104	648	–	–	12	9.9	0.024	1550	CCCc1nc(C)c2c(=O)[nH]c(-c3cc(S(=O)(=O)N(C)CC(=O)N(C)OC)ccc3OCC)nn12 [Compound 14]	–	–
0.63	–	–	93.3 (≈ 181 µM)	90.9 (≈ 176 µM)	0.135	1170	–	–	11.5	7.4	0.037	944	CCCc1nc(C)c2c(=O)[nH]c(-c3cc(S(=O)(=O)N(C)CCN4CCCC4=O)ccc3OCC)nn12 [Compound 20]	–	–
0.92	–	–	–	–	0.05	511	–	–	18.5	0.8	0.116	2950	CCCc1nc(C)c2c(=O)[nH]c(-c3cc(S(=O)(=O)N4CCN(CC(=O)N5CCOCC5)CC4)ccc3OCC)nn12 [Compound 22]	–	–
0.62	–	–	–	–	0.19	3700	–	–	15	–	–	2300	CCCNS(=O)(=O)c1ccc(OCC)c(-c2nn3c(CCC)nc(C)c3c(=O)[nH]2)c1 [Compound 23]	–	–

Further lines, the compound ahead of its results:

Compound	IC50 (PDE-6 bovine) [nM]	Papp A→B (Caco-2 permeability) [×10⁻⁶ cm/s]	Papp B→A (Caco-2 permeability) [×10⁻⁶ cm/s]	solubility (Solubility; [2]) [µg/mL]	solubility (Solubility; [3]) [µg/mL]	IC50 (PDE5) [nM]	IC50 (PDE-3) [nM]	Papp (PAMPA permeability; Hex, read-out: PAMPA Hex) [×10⁻⁶ cm/s]	Papp (PAMPA permeability; Lec, read-out: PAMPA Lec) [×10⁻⁶ cm/s]	IC50 (PDE-1) [nM]	Non-Spec Binding (%) (Non-Spec Binding)	fraction unbound (Protein Binding)	IC50 (PDE-4 human) [nM]	GI50 [1] [nM]	LC50 (50% lethal concentration) [1] [nM]
CCCc1nc(C)c2c(=O)[nH]c(-c3cc(S(=O)(=O)N(C)CCNC)ccc3OCC)nn12 [Compound 2]	16.3	1.48	9.88	> 50	> 50	0.646	1930	1.17	1.47	82	–	–	–	> 75000	> 75000
CCCc1nc(C)c2c(=O)[nH]c(-c3cc(S(=O)(=O)N(C)C(C)(C)C)ccc3OCC)nn12 [Compound 3]	3.74	50.8	50.4	90.2 (≈ 195 µM)	15 (≈ 32.5 µM)	0.107	323	53.9	–	11.9	–	–	–	> 50000	> 100000
CCCc1nc(C)c2c(=O)[nH]c(-c3cc(S(=O)(=O)NCCO)ccc3OCC)nn12 [Compound 4]	5.63	–	–	–	–	1.08	2030	~0.0062	0.0019	18.7	–	–	–	~50000	> 100000
CCCc1nc(C)c2c(=O)[nH]c(-c3cc(S(=O)(=O)N(CCO)CCO)ccc3OCC)nn12 [Compound 6]	17	4.3	28.1	–	–	0.52	1500	~0.08	–	26	–	–	–	–	–
CCCc1nc(C)c2c(=O)[nH]c(-c3cc(S(=O)(=O)N(C)C[C@H](COC)OC)ccc3OCC)nn12 [Compound 7]	2.9	48.6	57.4	–	–	0.356	784	76.1	–	14.7	25.5	0.018	–	–	–
CCCc1nc(C)c2c(=O)[nH]c(-c3cc(S(=O)(=O)N(C)C)ccc3OCC)nn12 [Compound 8]	5	45.4	47.4	–	–	1	1200	68.9	–	31	44.2	0.024	–	–	–
CCCc1nc(C)c2c(=O)[nH]c(-c3cc(S(=O)(=O)N(CCOCC)CCOCC)ccc3OCC)nn12 [Compound 10]	2.6	–	–	–	–	0.34	546	49	–	12	89.9	0.012	–	–	–

Source: US8853394B2, “Pharmacokinetically improved compounds” (Surface Logix, Inc., priority 2006, dated 2014)
